Data published in ChEMBL document CHEMBL3603826, “6-Arylpyrazine-2-carboxamides: A New Core for Trypanosoma brucei Inhibitors” (J Med Chem, 2015).
In brackets after ≈: the same amount, converted by molar mass.

Legend:
Liver microsome [1] = assay: Drug level in human liver microsomes treated with 10 uM 3-Amino-N-cyclopentyl-6-(m-tolyl)pyrazine-2-carboxamide assessed as compound formation after 60 mins presence of NADPH regenerating system and UDPGA by LC-MS method; type: ADME; details: 1 h
Liver microsome [2] = assay: Drug level in human liver microsomes treated with 10 uM 3-Amino-N-cyclopentyl-6-(m-tolyl)pyrazine-2-carboxamide assessed as compound formation after 60 mins presence of NADPH regenerating system by LC-MS method; type: ADME; details: 1 h
Liver microsome [3] = assay: Drug level in human liver microsomes treated with 10 uM 3-Amino-N-cyclopentyl-6-(m-tolyl)pyrazine-2-carboxamide assessed as compound formation after 60 mins absence of NADPH regenerating system and UDPGA by LC-MS method; type: ADME; details: 1 h
[4] = Partition coefficient, logD of the compound at pH 7.4 by HPLC method; type: physicochemical; details: octanol/water
[5] = Kinetic solubility in pH 6.5 phosphate buffer by nephelometry; type: physicochemical; details: read-out: Kinetic_solubility
[6] = Toxicity against rat L6 cells incubated for 70 hrs by alamar blue dye based assay; type: cell-based
Trypanosoma cruzi = assay: Anti-parasitic activity against Trypanosoma cruzi Tulahuen C2C4 trypomastigotes infected rat L6 cells incubated for 96 hrs by CPRG/nonidet substrate based […]; type: functional, organism-based; details: Tulahuen C2C4, L6, 96 h
Leishmania donovani = assay: Anti-parasitic activity against Leishmania donovani MHOM/ET/67/L82 axenic amastigotes incubated for 70 hrs by alamar blue dye based assay; type: functional, organism-based; details: MHOM/ET/67/L82, 70 h
[7] = Intrinsic clearance in human liver microsomes assessed per mg protein at pH 7.4 at 0.5 uM in presence of NADPH regenerating system by LC-MS method; type: ADME; details: read-out: CLH
Brain = assay: Drug concentration in Swiss mouse brain at normalized dose of 1 mg/kg, iv after 5 mins by LC-MS method; type: ADME, organism-based; details: in vivo
[8] = system: Trypanosoma brucei brucei; assay: Anti-parasitic activity against Trypanosoma brucei brucei 427 bloodstream parasites incubated for 48 hrs by alamar blue dye based assay; type: functional, organism-based; details: Trypanosoma brucei, 427, 48 h
[9] = system: Trypanosoma brucei rhodesiense; assay: Anti-parasitic activity against Trypanosoma brucei rhodesiense STIB 900 trypomastigotes incubated for 70 hrs by alamar blue dye based assay; type: functional, organism-based; details: STIB 900, 70 h
[10] = Selectivity index, ratio of cytotoxic IC50 for rat L6 cells to EC50 for anti-parasitic activity against Trypanosoma brucei rhodesiense STIB 900; type: toxicity, cell-based; details: read-out: Ratio IC50/EC50
[11] = Selectivity index, ratio of cytotoxic IC50 for HEK293 cells to EC50 for anti-parasitic activity against Trypanosoma brucei brucei 427 bloodstream parasites; type: toxicity, cell-based; details: human, read-out: Ratio IC50/EC50
[12] = Stability assessed as degradation half life; type: physicochemical
[13] = Ratio of drug concentration in brain to plasma of Swiss mouse at normalized dose of 1 mg/kg, iv after 5 mins by LC-MS method; type: ADME, organism-based; details: read-out: BPR
[14] = Kinetic solubility in pH 2.0 0.01M HCl buffer by nephelometry; type: physicochemical; details: read-out: Kinetic_solubility
serum albumin = serum albumin (Homo sapiens, UniProt P02768); assay: Binding affinity to human serum albumin by chromatographic method; type: ADME; details: read-out: PB (converted)
Plasmodium falciparum = assay: Anti-parasitic activity against chloroquine and pyrimethamine resistant Plasmodium falciparum K1 erythrocytic stages infected in human erythrocytes incubated for 48 hrs by [3H]-hypoxanthine incorporation assay; type: functional, organism-based
[15] = Volume of distribution in Swiss mouse at 1.8 mg/kg, iv by LC-MS method; type: ADME, organism-based; details: in vivo
[16] = Blood clearance in Swiss mouse at 1.8 mg/kg, iv by LC-MS method; type: ADME, organism-based; details: whole blood
[17] = Apparent half life in Swiss mouse at 1.8 mg/kg, iv by LC-MS method; type: ADME, organism-based; details: in vivo, read-out: t1/2(app) (converted)
Mus musculus = assay: Blood clearance in Swiss mouse at 1.8 mg/kg, iv by LC-MS method relative to hepatic blood flow; type: ADME, organism-based, Liver; details: in vivo
Liver microsome [18] = assay: Drug metabolism in human liver microsomes assessed as N-oxide metabolite formation after 60 mins at 10 uM absence of NADPH regenerating system and UDPGA by LC-MS method; type: ADME; details: 1 h
[19] = Drug stability in human liver microsomes assessed as parent compound loss after 60 mins at 10 uM absence of NADPH regenerating system and UDPGA by LC-MS method; type: ADME; details: read-out: Drug degradation
Liver microsome [20] = assay: Drug metabolism in human liver microsomes assessed as oxygenated metabolite formation after 60 mins at 10 uM presence of NADPH regenerating system by LC-MS method; type: ADME; details: 1 h
Liver microsome [21] = assay: Drug metabolism in human liver microsomes assessed as oxygenated metabolite formation after 60 mins at 10 uM presence of NADPH regenerating system and UDPGA by LC-MS method; type: ADME; details: 1 h
[22] = Drug metabolism in human liver microsomes after 60 mins at 10 uM presence of NADPH regenerating system by LC-MS method; type: ADME; details: read-out: Drug metabolism
[23] = Toxicity in late-stage human african trypanosomiasis patient assessed as mortality rate following 10-day schedule; type: organism-based; details: in vivo

serum albumin, sequence (P02768 whole entry): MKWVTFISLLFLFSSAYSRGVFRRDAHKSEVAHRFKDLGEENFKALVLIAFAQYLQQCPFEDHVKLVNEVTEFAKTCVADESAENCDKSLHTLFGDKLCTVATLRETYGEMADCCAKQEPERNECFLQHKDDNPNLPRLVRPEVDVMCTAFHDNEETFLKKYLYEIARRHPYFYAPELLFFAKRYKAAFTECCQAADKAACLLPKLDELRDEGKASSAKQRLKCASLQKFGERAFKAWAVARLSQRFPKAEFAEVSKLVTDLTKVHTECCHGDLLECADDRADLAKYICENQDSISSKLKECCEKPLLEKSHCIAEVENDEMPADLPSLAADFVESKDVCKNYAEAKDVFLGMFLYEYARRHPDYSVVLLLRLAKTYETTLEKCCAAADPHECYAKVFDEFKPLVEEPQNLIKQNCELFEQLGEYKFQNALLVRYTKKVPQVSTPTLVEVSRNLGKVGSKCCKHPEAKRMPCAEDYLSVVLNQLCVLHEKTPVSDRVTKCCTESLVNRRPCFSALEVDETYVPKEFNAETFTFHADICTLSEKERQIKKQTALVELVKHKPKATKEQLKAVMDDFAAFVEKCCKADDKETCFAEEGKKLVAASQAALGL

Row | Drug metabolism (Liver microsome [1]) | Drug metabolism (Liver microsome [2]) | SMILES | logD [4] | solubility kinetic [5] [µg/mL] | IC50 at 70 h [6] [µM] | EC50 (Trypanosoma cruzi) [µM] | EC50 (Leishmania donovani) [µM] | microsomal CLint at 0.5 µM [7] [µL/min/mg] | EC50 [8] [µM] | EC50 [9] [µM] | selectivity ratio [10] | selectivity ratio [11] | half-life [12] [min] | solubility kinetic [14] [µg/mL] | fraction unbound (serum albumin) | EC50 (Plasmodium falciparum) [µM] | further results
1 | metabolite_detected | metabolite_detected | Cc1cccc(-c2c[n+]([O-])c(N)c(C(=O)NC3CCCC3)n2)c1 | – | – | – | – | – | – | – | – | – | – | – | – | – | – | Drug metabolism (Liver microsome [3]): metabolite_detected
2 | – | – | Nc1ncc(-c2ccccc2)nc1C(=O)NC1CCCC1 | 4.1 | 25 (≈ 88.5 µM) | 20 | 13 | > 10 | 198 | 0.26 | 0.14 | 140 | > 368 | 9 | 6.3 (≈ 22.3 µM) | 0.042 | 6.1 | Drug uptake (Brain): 1192.3 ng/g; Kp at 5 min [13]: 5.7
3 | – | – | CCC(CC)NC(=O)c1nc(-c2ccc(F)cc2)cnc1N | 4.4 | 3.1 (≈ 10.3 µM) | 28 | 15 | > 10 | 84 | 0.08 | 0.053 | 540 | 1024 | 21 | 3.1 (≈ 10.3 µM) | 0.036 | 7.6 | Vd [15]: 14.7 L/kg; clearance [16]: 69 mL/min/kg; half-life [17]: 546 min; CL (Mus musculus): 60%
4 | metabolite_detected | metabolite_detected | Cc1cccc(-c2cnc(N)c(C(=O)NC3=CCCC3)n2)c1 | – | – | – | – | – | – | – | – | – | – | – | – | – | – | –
5 | metabolite_detected | metabolite_detected | Nc1ncc(-c2cccc(C(=O)O)c2)nc1C(=O)NC1CCCC1 | – | – | – | – | – | – | – | – | – | – | – | – | – | – | –
6 | – | – | CCC(C)NC(=O)c1nc(-c2ccc(F)cc2)cnc1N (stereo not drawn) | 4 | 50 (≈ 173 µM) | 17 | 17 | > 10 | 119 | 0.4 | 0.22 | 61 | > 206 | 15 | 6.3 (≈ 21.9 µM) | 0.058 | 9 | Drug uptake (Brain): 1069.5 ng/g; Kp at 5 min [13]: 5.1
7 | – | – | N#Cc1ccccc1-c1cnc(N)c(C(=O)NC2CCCC2)n1 | 3.9 | < 1.6 | 11 | 5.2 | > 10 | 165 | 0.2 | 0.57 | 19 | 416 | 10 | 3.1 (≈ 10.1 µM) | 0.038 | 2.5 | –
8 | – | – | Cc1cccc(-c2cnc(N)c(C(=O)NC3CCCC3)n2)c1 | 4.6 | 3.1 (≈ 10.5 µM) | 42 | 17 | > 10 | 266 | 0.035 | 0.024 | 1790 | 2380 | 7 | 3.1 (≈ 10.5 µM) | 0.023 | 4.9 | Drug metabolism (Liver microsome [18]): metabolite_detected; metabolised at 1 h, 10 µM [19]: 6%; Drug metabolism (Liver microsome [20]): metabolite_detected; Drug metabolism (Liver microsome [21]): metabolite_detected; metabolised at 1 h, 10 µM [22]: 92%
9 | metabolite_detected | metabolite_detected | Nc1ncc(-c2cccc(CO)c2)nc1C(=O)NC1CCCC1 | – | – | – | – | – | – | – | – | – | – | – | – | – | – | –
10 | – | – | Nc1nc(N)nc(Nc2ccc([As]3SCC(CO)S3)cc2)n1 (stereo not drawn) [MELARSOPROL] | – | – | – | – | – | – | – | – | – | – | – | – | – | – | mortality at 10 day [23]: 5.9%
